What was measured:
Type in all cases: functional
[1] = tested on: Spilarctia obliqua; assay: Antifeedant activity against fourth-instar larval stage of Spilarctia obliqua reared on artificial diet containing compound assessed as growth inhibition at 1000 ppm after 48 hr; conditions: read-out: GI
[2] = tested on: Spilarctia obliqua; assay: Antifeedant activity against fourth-instar larval stage of Spilarctia obliqua reared on artificial diet containing compound assessed as feeding deterrence index at 5000 ppm after 24 hr
[3] = tested on: Spilarctia obliqua; assay: Antifeedant activity against fourth-instar larval stage of Spilarctia obliqua reared on artificial diet containing compound assessed as growth inhibition at 3000 ppm after 48 hr; conditions: read-out: GI
[4] = tested on: Spilarctia obliqua; assay: Antifeedant activity against fourth-instar larval stage of Spilarctia obliqua reared on artificial diet containing compound assessed as growth inhibition at 2000 ppm after 48 hr; conditions: read-out: GI
[5] = tested on: Spilarctia obliqua; assay: Antifeedant activity against fourth-instar larval stage of Spilarctia obliqua reared on artificial diet containing compound assessed as growth inhibition at 4000 ppm after 48 hr; conditions: read-out: GI
[6] = tested on: Spilarctia obliqua; assay: Antifeedant activity against fourth-instar larval stage of Spilarctia obliqua reared on artificial diet containing compound assessed as feeding deterrence index at 2000 ppm after 24 hr
[7] = tested on: Spilarctia obliqua; assay: Antifeedant activity against fourth-instar larval stage of Spilarctia obliqua reared on artificial diet containing compound assessed as feeding deterrence index at 4000 ppm after 24 hr
[8] = tested on: Spilarctia obliqua; assay: Antifeedant activity against fourth-instar larval stage of Spilarctia obliqua reared on artificial diet containing compound assessed as feeding deterrence index at 1000 ppm after 24 hr
[9] = tested on: Spilarctia obliqua; assay: Antifeedant activity against fourth-instar larval stage of Spilarctia obliqua reared on artificial diet containing compound assessed as growth inhibition at 5000 ppm after 48 hr; conditions: read-out: GI
[10] = tested on: Spilarctia obliqua; assay: Antifeedant activity against fourth-instar larval stage of Spilarctia obliqua reared on artificial diet containing compound assessed as feeding deterrence index at 3000 ppm after 24 hr
[11] = tested on: Spilarctia obliqua; assay: Antifeedant activity against fourth-instar larval stage of Spilarctia obliqua reared on artificial diet containing compound assessed as growth inhibition […] after 48 hr; conditions: read-out: GI

COc1ccc(CC[C@@H](C)N)cc1
inhibition of growth at 1000 ppm [1]: 48% | FDI [2]: 100% | inhibition of growth at 3000 ppm [3]: 72% | inhibition of growth at 2000 ppm [4]: 59% | inhibition of growth at 4000 ppm [5]: 100% | FDI [6]: 40% | FDI [7]: 82% | FDI [8]: 32% | inhibition of growth at 5000 ppm [9]: 128% | FDI [10]: 64%

C/C=C(\C)C(=O)O[C@H]1C[C@@H](OC(C)=O)[C@@]2(C(=O)OC)CO[C@H]3[C@@H](O)[C@@](C)([C@]45O[C@@]4(C)[C@@H]4C[C@H]5O[C@@H]5OC=C[C@@]54O)[C@H]4[C@]1(CO[C@]4(O)C(=O)OC)[C@@H]32 [AZADIRACHTIN A]
FDI [8]: 100%

O=C(NC(=O)c1c(F)cccc1F)Nc1ccc(Cl)cc1 [DIFLUBENZURON]
inhibition of growth at 5 ppm [11]: 100%

— ChEMBL document CHEMBL3045160, “Betuligenol derivative with growth inhibition and antifeedant activity” (2004)
